{"source": "patent US20070099947A1", "about": "“Methods and compositions for the treatment of brain reward system disorders by combination therapy” (Alkermes, Inc., priority 2005, published 2007)", "key": {"[1]": {"system": "self-administration of ethanol", "assay": "Operant self-administration of ethanol (lever presses for 10% ethanol cocktail)", "assay_type": "in vivo, Male Wistar rats", "conditions": "for Percent Change from Non-Drug Baseline: Repeated Dosing: Day 1 / Percent Change from Non-Drug Baseline: Repeated Dosing: Day 5 / Percent Change from Non-Drug Baseline: Single Dosing: lever presses for ethanol, naltrexone ED75 SC; for Percent Change from Non-Drug Baseline: Repeated Dosing: Day 1 / Percent Change from Non-Drug Baseline: Repeated Dosing: Day 5: once a day for 5 days; for effect on number of lever presses for ethanol over the dose range: naltrexone 0-6 mg/kg SC, 30 min before session; for Lever Presses (Mean ± SEM): 30 min session; for decrease in number of lever presses for ethanol compared to non-drug treated (baseline): naltrexone ED75 0.05-0.075 mg/kg SC alone", "experimental": "Male Wistar rats (initial weight of 200±30 grams; Charles River Laboratories, MA) were individually housed with free access to food and water. The vivarium was maintained on a 12 hour light/dark cycle with a room temperature of 22±3° C.\nAnimals were trained daily in an operant chamber to press a lever to receive access to an ethanol cocktail as a reinforcer using a saccharin fading procedure. […] The final ethanol cocktail contained 10% ethanol in 0.04% saccharine. Each session lasted 30 minutes, during which the rat could press the lever twice to gain access to 0.1 mL of the ethanol cocktail. The operant chamber (Coulboume Instruments, Allentown, Pa.) is a computer-controlled automated system which recorded the number of lever presses completed by a rat. At the end of the training period (6-8 weeks), rats which consistently drank a minimum intake of 0.6 g/kg/hour of EtOH (approximately 60 bar presses) were selected to participate in the drug studies. These trained rats were used repeatedly throughout these studies to control for intra-subject variability. Assessments of drug effects were made following a single dosing, with a minimum of a 2 day drug washout period between arms of studies.\nThe ability of naltrexone to reduce ethanol drinking (i.e., decrease the number of lever presses) was assessed in this animal model of self administration of ethanol. […] The total number of lever presses was recorded over the 30 minute test session. […] In addition, oral activity was also assessed. […] The animals were tested in the operant chambers one hour later and the number of lever presses for ethanol was recorded for the 30 minute session.\nThis dose allows one to determine if the co-administered drugs impaired or enhanced naltrexone's effect on ethanol drinking. The drugs were administered orally 30 minutes prior to a naltrexone injection (SC), and 60 minutes prior to the beginning of the ethanol drinking test session. The number of lever presses for the ethanol cocktail was recorded at the end of the 30 minute session.\nRepeated Dosing. The previous studies were conducted using a single dosing procedure. To determine if this drug interaction might be further enhanced with repeated daily dosing or conversely, the effect on decreasing alcohol self-administration is lost (due to tolerance) following multiple daily dosing, the study was repeated with a once-a-day for 5 days dosing procedure. […] Animals were tested on Day 1 and on Day 5.\nRepeated Dosing. The previous study was conducted using a single dosing procedure. To determine if this drug interaction might be further enhanced with repeated dosing or conversely, the effect on decreasing alcohol self-administration is lost (due to tolerance) following multiple daily dosing, the study was repeated with a once-a-day for 5 days dosing procedure. […] Animals were tested on Day 1 and on Day 5."}, "[2]": {"assay": "Pharmacokinetic profile of opioid antagonists after IV, PO and SC administration", "conditions": "rat; for AUC(0-inf) / bioavailability: male, Sprague Dawley, in vivo", "experimental": "Blood samples were collected for 6 hours post-dose. Concentrations of each parent drug were determined by LC/MS-MS. Pharmacokinetic parameters were determined by noncompartmental analysis."}, "[3]": {"system": "morphine-induced analgesia", "assay": "Hotplate test: inhibition of morphine-induced analgesia", "assay_type": "in vivo, Male Wistar rats", "conditions": "5 consecutive days SC dosing; first vs last day response latencies"}}}
{"smiles": "Cc1c(C(=O)NN2CCCCC2)nn(-c2ccc(Cl)cc2Cl)c1-c1ccc(I)cc1", "note": "[AM-251]", "values": [{"measurement": "lever pressing for ethanol compared to non-drug treated conditions", "setting": "[1]; AM-251 3.0 mg/kg alone", "value": "no effect"}, {"measurement": "Percent Change from Non-Drug Baseline: Repeated Dosing: Day 1", "setting": "[1]; AM-251 1 mg/kg PO", "value": "−2", "unit": "%"}, {"measurement": "Percent Change from Non-Drug Baseline: Repeated Dosing: Day 5", "setting": "[1]; AM-251 1 mg/kg PO", "value": "+19%"}]}
{"smiles": "NC[C@H](CC(=O)O)c1ccc(Cl)cc1", "note": "[Baclofen, R(+)-Baclofen]", "values": [{"measurement": "lever pressing for ethanol compared to non-drug treated conditions", "setting": "[1]; baclofen 3.0 mg/kg alone, p<0.01", "value": "significantly decreased the self-administration of ethanol"}, {"measurement": "Percent Change from Non-Drug Baseline: Repeated Dosing: Day 1", "setting": "[1]; baclofen 0.3 mg/kg PO", "value": "−35", "unit": "%"}, {"measurement": "Percent Change from Non-Drug Baseline: Repeated Dosing: Day 5", "setting": "[1]; baclofen 0.3 mg/kg PO", "value": "−30", "unit": "%"}]}
{"smiles": "O=C1CC[C@@]2(O)[C@H]3Cc4ccc(O)c5c4[C@@]2(CCN3CC2CC2)[C@H]1O5", "note": "[Naltrexone]", "values": [{"measurement": "AUC(0-inf)", "setting": "[2]; po, 10 mg/kg", "value": 150, "unit": "ng·h/mL"}, {"measurement": "bioavailability", "setting": "[2]; po, 10 mg/kg", "value": 3, "unit": "%"}, {"measurement": "AUC(0-inf)", "setting": "[2]; sc, 0.1 mg/kg", "value": 14.4, "unit": "ng·h/mL"}, {"measurement": "bioavailability", "setting": "[2]; sc, 0.1 mg/kg", "value": 31, "unit": "%"}, {"measurement": "absorption", "setting": "[2]; PO or SC", "value": "rapidly absorbed"}, {"measurement": "development of tolerance in blocking morphine-induced analgesia", "setting": "[3]", "value": "no development of tolerance"}, {"measurement": "effect on decreasing self-administration of ethanol", "setting": "[1]; 0.5 mg/kg SC, 30 minutes prior to testing", "value": "equivalent effects"}, {"measurement": "effect on decreasing self-administration of ethanol (oral activity)", "setting": "[1]; 10 mg/kg oral gavage, tested one hour later", "value": "only RDC-0313-01 was active"}, {"measurement": "ED75 (dose of naltrexone that produced a 25% decrease in lever responses for ethanol)", "setting": "[1]; SC, titrated for each individual animal", "value": "0.05 to 0.075", "unit": "mg/kg"}, {"measurement": "Percent Change from Non-Drug Baseline: Repeated Dosing: Day 1", "setting": "[1]; AM-251 1 mg/kg PO", "value": "−24", "unit": "%"}, {"measurement": "Percent Change from Non-Drug Baseline: Repeated Dosing: Day 5", "setting": "[1]; AM-251 1 mg/kg PO", "value": "−19", "unit": "%"}, {"measurement": "Percent Change from Non-Drug Baseline: Single Dosing", "setting": "[1]; AM-251 PO", "value": "−33", "unit": "%"}, {"measurement": "Percent Change from Non-Drug Baseline: Repeated Dosing: Day 1", "setting": "[1]; baclofen 0.3 mg/kg PO", "value": "−43", "unit": "%"}, {"measurement": "Percent Change from Non-Drug Baseline: Repeated Dosing: Day 5", "setting": "[1]; baclofen 0.3 mg/kg PO", "value": "−57", "unit": "%"}, {"measurement": "Percent Change from Non-Drug Baseline: Single Dosing", "setting": "[1]; baclofen PO", "value": "−18", "unit": "%"}, {"measurement": "decrease in lever presses versus baseline and vehicle control", "setting": "[1]; lowest dose of naltrexone tested, 0.05 mg/kg", "value": "no significant decrease"}, {"measurement": "effect on number of lever presses for ethanol over the dose range", "setting": "[1]", "value": "Suppresses the Self-Administration of Ethanol in a Dose-Dependent Manner"}, {"measurement": "effect on number of lever presses for ethanol over the dose range", "setting": "[1]; listed as naltrexone", "value": "dose-dependent decrease in the number of lever presses"}, {"measurement": "Approximate Absolute Ethanol Consumed", "setting": "[1]; naltrexone 0.05 mg/kg SC", "value": 1.0, "unit": "g/kg"}, {"measurement": "Lever Presses (Mean ± SEM)", "setting": "[1]; naltrexone 0.05 mg/kg SC", "value": "132 ± 13.3"}, {"measurement": "Approximate Absolute Ethanol Consumed", "setting": "[1]; naltrexone 0.1 mg/kg SC", "value": 0.7, "unit": "g/kg"}, {"measurement": "Lever Presses (Mean ± SEM)", "setting": "[1]; naltrexone 0.1 mg/kg SC", "value": "88 ± 8.6"}, {"measurement": "Approximate Absolute Ethanol Consumed", "setting": "[1]; naltrexone 0.5 mg/kg SC", "value": 0.6, "unit": "g/kg"}, {"measurement": "Lever Presses (Mean ± SEM)", "setting": "[1]; naltrexone 0.5 mg/kg SC", "value": "83 ± 12.1"}, {"measurement": "Approximate Absolute Ethanol Consumed", "setting": "[1]; naltrexone 1.0 mg/kg SC", "value": 0.3, "unit": "g/kg"}, {"measurement": "Lever Presses (Mean ± SEM)", "setting": "[1]; naltrexone 1.0 mg/kg SC", "value": "43 ± 8.6"}, {"measurement": "Approximate Absolute Ethanol Consumed", "setting": "[1]; naltrexone 3.0 mg/kg SC", "value": 0.2, "unit": "g/kg"}, {"measurement": "Lever Presses (Mean ± SEM)", "setting": "[1]; naltrexone 3.0 mg/kg SC", "value": "24 ± 8.1"}, {"measurement": "Approximate Absolute Ethanol Consumed", "setting": "[1]; naltrexone 6.0 mg/kg SC", "value": 0.2, "unit": "g/kg"}, {"measurement": "Lever Presses (Mean ± SEM)", "setting": "[1]; naltrexone 6.0 mg/kg SC", "value": "21 ± 5.5"}, {"measurement": "effect on decreasing ethanol drinking at the higher doses", "setting": "[1]; naltrexone 3 and 6 mg/kg", "value": "appeared to plateau"}, {"measurement": "decrease in number of lever presses for ethanol compared to non-drug treated (baseline)", "setting": "[1]; AM-251 acute dosing study", "value": 32.5, "unit": "%"}, {"measurement": "decrease in number of lever presses for ethanol compared to non-drug treated (baseline)", "setting": "[1]; baclofen single dosing study", "value": 18, "unit": "%"}]}
